Columns and labels:
Nematospiroides dubius = assay: In vivo nematode test, Nematospiroides dubius in the mouse; conditions: oral
Experimental: Nematospiroides dubius in the Mouse
Mice are infected experimentally with nematodes of the species Nematospiroides dubius. For infection, the mice are administered orally with Nematospiroides dubius as 60 filariform larvae.
After the prepatency period has expired, the suspended active substances are administered orally on day 12 after infection.
(§1) Determination of the Activity
The mice are selected on day 20 after infection. The adult parasites in the Duodenum are counted by means of a compressor. The success of treatment in the dose group is made relative to the untreated control group.

Ancylostoma caninum = assay: In-vivo nematode test, Ancylostoma caninum in dogs; conditions: oral
Experimental: Ancylostoma caninum in dogs
Beagle puppies were experimentally infested with hookworms (Ancylostoma caninum). Amount of infestation material were 250 L3 larvae.
After the prepatent period, when mature worms are present within the gastrointestinal tract, the dogs were orally treated with the test compounds as pure active in gelatine capsules.
Determination of the Efficacy was Carried Out According to the Following Two Methods
1. Counts of worm eggs within the dogs faces before and after treatment.
2. Percent efficacy at a critical test calculated using the formula: [formula]

Heterakis spumosa = assay: In vivo nematode test, Heterakis spumosa in the mouse; conditions: oral
Experimental: Heterakis spumosa in the Mouse
Mice are infected experimentally with nematodes of the species Heterakis spumosa. For infection, the mice are administered orally with Heterakis spumosa as 90 embryonate eggs.
After the prepatency period has expired, the suspended active substances are administered orally on day 46 after infection.
as §1
The mice are selected on day 54 after infection. The adult parasites are counted in the colon and caecum using a microscope. The success of treatment in the dose group is made relative to the untreated control group.

[1] = system: hookworm Uncinaria stenocephala; conditions: 500 μg/kg, dogs; cited from earlier work
hookworm and whipworm = conditions: human medicine, high dosage on several days in succession; cited from earlier work
[2] = ivermectin B1a/B1b 0.1 mg/kg alone

Compound: CC(C)C[C@H]1C(=O)O[C@H](Cc2ccccc2)C(=O)N(C)[C@@H](CC(C)C)C(=O)O[C@H](C)C(=O)N(C)[C@@H](CC(C)C)C(=O)O[C@H](Cc2ccccc2)C(=O)N(C)[C@@H](CC(C)C)C(=O)O[C@H](C)C(=O)N1C [PF 1022 A]
- Reduction rate (Nematospiroides dubius; PF 1022 A 25.0 mg/kg alone): 0%
- Reduction rate (Nematospiroides dubius; PF 1022 A 50.0 mg/kg alone): 0%
- Reduction rate (Ancylostoma caninum; PF 1022 A 0,5 mg/kg alone): 0%
- Reduction rate (Ancylostoma caninum; PF 1022 A 1,0 mg/kg alone): 100%
- Reduction rate (Heterakis spumosa; PF 1022 A 5.0 mg/kg alone): 0%
- Reduction rate (Heterakis spumosa; PF 1022 A 10.0 mg/kg alone): 0%
- Reduction rate (Heterakis spumosa; PF 1022 A 25.0 mg/kg alone): 0%
- Reduction rate (Heterakis spumosa; PF 1022 A 50.0 mg/kg alone): 0%

Compound: Milbemycin
- action against the hookworm Uncinaria stenocephala [1]: distinct weakness in its action

Compound: 22,23-dihydroavermectins B1a /B1b [Ivermectin B1a /B1b]
- Reduction rate (Nematospiroides dubius; [2]): 0%
- Reduction rate (Ancylostoma caninum; ivermectin B1a/B1b 0,01 mg/kg alone): 100%
- Reduction rate (Ancylostoma caninum; ivermectin B1a/B1b 0,001 mg/kg alone): 0%
- Reduction rate (Heterakis spumosa; [2]): < 50%
- efficacy in hookworm and whipworm infected patients (hookworm and whipworm): ineffective

Source: patent US6159932A, “Endoparasiticidal compositions” (Bayer Aktiengesellschaft, priority 1995, dated 2000)
